The values below come from ChEMBL document CHEMBL1146172, “Identification of novel, orally bioavailable spirohydantoin CGRP receptor antagonists” (Bioorg Med Chem Lett, 2006).

One series concerns Canis familiaris. Kind of series: Volume of distribution in dog at 0.5 mpk, iv. The following applies: in vivo, 0.5 mg/kg.
The nature of series [1]: Clearance in dog at 0.5 mpk, iv. The following applies: in vivo, 0.5 mg/kg.
Series [2] is described as follows: Half life in rat at 2 mpk, iv. It is filed as ADME, organism-based. To be noted: in vivo, 2 mg/kg.
The target in another series is Cytochrome P450 2C9 (Homo sapiens, UniProt P11712). Description: Inhibition of CYP2C9. It is filed as ADME.
Cytochrome P450 2C9, sequence (P11712 whole entry): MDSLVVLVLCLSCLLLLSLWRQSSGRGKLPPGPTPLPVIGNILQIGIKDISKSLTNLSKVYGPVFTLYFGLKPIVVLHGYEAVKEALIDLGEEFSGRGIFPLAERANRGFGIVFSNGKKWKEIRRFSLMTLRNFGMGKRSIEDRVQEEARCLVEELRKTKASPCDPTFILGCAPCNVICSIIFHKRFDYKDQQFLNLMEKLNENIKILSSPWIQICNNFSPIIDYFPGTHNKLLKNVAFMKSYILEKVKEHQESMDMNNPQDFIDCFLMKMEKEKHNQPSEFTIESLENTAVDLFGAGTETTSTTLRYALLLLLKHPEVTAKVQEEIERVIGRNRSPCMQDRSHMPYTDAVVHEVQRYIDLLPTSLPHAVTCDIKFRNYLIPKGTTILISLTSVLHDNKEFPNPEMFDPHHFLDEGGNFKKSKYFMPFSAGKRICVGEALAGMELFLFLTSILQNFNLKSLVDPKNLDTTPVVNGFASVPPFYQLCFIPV
Series [3] can be described thus: Bioavailability in rhesus at 2 mg/kg, po. In kind it is ADME, organism-based, Macaca mulatta. To be noted: rhesus monkey, in vivo.
Series [4] can be described thus: Bioavailability in rat at 10 mg/kg, po. The following applies: in vivo. It is filed as ADME, organism-based.
For the next series, the system named is Rhesus monkey. Description: Volume of distribution in rhesus at 0.5 mpk, iv. To be noted: Macaca mulatta, in vivo, 0.5 mg/kg.
Series [5] in a line: Half life in rhesus at 0.5 mpk, iv. It is filed as ADME, organism-based, Macaca mulatta. The following applies: rhesus monkey, in vivo, 0.5 mg/kg.
The next series concerns the target Cytochrome P450 2D6 (Homo sapiens, UniProt P10635). Kind of series: Inhibition of CYP2D6. It is filed as ADME.
Series [6] can be described thus: Half life in dog at 0.5 mg/kg, iv. The following applies: in vivo. It is filed as ADME, organism-based, Canis lupus familiaris. More on the design: dose 0.5 mg/kg, route intravenous.
A short description of series [7]: Bioavailability in dog at 2 mg/kg, po. To be noted: in vivo. In kind it is ADME, organism-based, Canis lupus familiaris.
A further series has as its target Cytochrome P450 3A4 (Homo sapiens, UniProt P08684). Description: Inhibition of CYP3A4. It is filed as ADME.
A short description of series [8]: Solubility at pH 7.4. The following applies: buffer. In kind it is physicochemical.
A further series relates to Rattus norvegicus. Description: Volume of distribution in rat at 2 mpk, iv. To be noted: in vivo, 2 mg/kg.
The nature of series [9]: Clearance in rhesus at 0.5 mpk, iv. The following applies: Macaca mulatta, rhesus monkey, in vivo, 0.5 mg/kg.
Series [10] in a line: Clearance in rat at 2 mpk, iv. To be noted: in vivo, 2 mg/kg.
In series [11] the target is Calcitonin gene-related peptide type 1 receptor (Homo sapiens, UniProt Q16602). Kind of series: Inhibition of CGRP-induced cAMP production in E10 cells. In kind it is functional, cell-based, Mus musculus. Background: cAMP levels reflect the balance of adenylyl cyclase and phosphodiesterase activity.
Calcitonin gene-related peptide type 1 receptor (Homo sapiens, UniProt Q16602), sequence (Q16602 whole entry): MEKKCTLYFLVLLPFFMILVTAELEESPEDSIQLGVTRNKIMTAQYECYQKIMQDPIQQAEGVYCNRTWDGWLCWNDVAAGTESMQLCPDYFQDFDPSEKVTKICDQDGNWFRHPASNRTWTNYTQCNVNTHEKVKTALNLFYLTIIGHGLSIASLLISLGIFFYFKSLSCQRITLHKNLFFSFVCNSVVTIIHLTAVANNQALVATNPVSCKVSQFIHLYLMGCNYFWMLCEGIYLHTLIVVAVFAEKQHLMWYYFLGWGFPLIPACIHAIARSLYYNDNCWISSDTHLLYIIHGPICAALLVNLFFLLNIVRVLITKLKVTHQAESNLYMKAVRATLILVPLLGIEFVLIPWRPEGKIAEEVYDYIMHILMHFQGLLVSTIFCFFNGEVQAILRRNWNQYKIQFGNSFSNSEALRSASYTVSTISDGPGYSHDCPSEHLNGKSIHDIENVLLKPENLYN
The target of series [12] is Calcitonin gene-related peptide type 1 receptor (Homo sapiens, UniProt O60894+Q16602). Description: Displacement of [125I]hCGRP from human cloned CGRP receptor expressed in HEK293 cells. In kind it is cell-based. On the technique in general: Loss of bound radioactivity is the signal in a displacement assay; it reports binding, not function.
Calcitonin gene-related peptide type 1 receptor (Homo sapiens, UniProt O60894+Q16602), sequence (Q16602 whole entry, one chain of several): as the sequence (Q16602 whole entry) above

Cytochrome P450 3A4, sequence (P08684 whole entry): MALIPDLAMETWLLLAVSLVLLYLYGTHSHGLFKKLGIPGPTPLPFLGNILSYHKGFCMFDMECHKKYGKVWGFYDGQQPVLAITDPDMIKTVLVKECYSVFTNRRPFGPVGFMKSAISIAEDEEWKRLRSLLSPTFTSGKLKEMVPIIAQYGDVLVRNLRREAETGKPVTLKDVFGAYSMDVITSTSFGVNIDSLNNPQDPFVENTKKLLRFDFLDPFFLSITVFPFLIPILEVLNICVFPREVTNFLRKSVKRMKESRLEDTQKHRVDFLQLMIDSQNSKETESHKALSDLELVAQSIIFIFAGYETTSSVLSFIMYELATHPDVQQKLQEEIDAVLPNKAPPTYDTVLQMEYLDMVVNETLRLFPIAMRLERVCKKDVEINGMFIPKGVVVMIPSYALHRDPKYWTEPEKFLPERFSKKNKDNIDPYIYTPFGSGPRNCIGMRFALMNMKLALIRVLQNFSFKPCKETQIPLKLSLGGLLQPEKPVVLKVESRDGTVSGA
Cytochrome P450 2D6, sequence (P10635 whole entry): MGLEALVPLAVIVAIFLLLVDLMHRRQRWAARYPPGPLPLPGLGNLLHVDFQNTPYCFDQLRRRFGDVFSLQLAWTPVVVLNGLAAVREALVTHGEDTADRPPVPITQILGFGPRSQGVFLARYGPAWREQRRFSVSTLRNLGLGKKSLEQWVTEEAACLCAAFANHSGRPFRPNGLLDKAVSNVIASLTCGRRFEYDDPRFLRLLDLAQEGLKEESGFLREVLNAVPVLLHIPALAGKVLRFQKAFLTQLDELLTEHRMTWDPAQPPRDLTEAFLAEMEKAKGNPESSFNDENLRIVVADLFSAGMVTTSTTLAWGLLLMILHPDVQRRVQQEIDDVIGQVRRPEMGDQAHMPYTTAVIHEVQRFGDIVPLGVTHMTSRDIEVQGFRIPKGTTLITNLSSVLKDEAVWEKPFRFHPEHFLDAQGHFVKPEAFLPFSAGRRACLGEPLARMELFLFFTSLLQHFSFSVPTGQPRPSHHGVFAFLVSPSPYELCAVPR

Broadly, the Vdss is a proportionality between amount in the body and measured concentration, not a real space. By clearance is commonly meant the volume of plasma or blood freed of the substance per unit of time. Usually half-life stands for the time in which the quantity being followed falls by half. One may read the IC50 as the point on the concentration scale where inhibition reaches its midpoint. Broadly, the bioavailability is the share of a dose that reaches the circulation, judged against a reference dose that is usually intravenous. Usually solubility stands for the dissolved amount per volume that the medium holds. Regarding `CN1C(=O)NC(=O)[C@]12Cc1ccc(NC(=O)Cn3c(=O)n(-c4ccccn4)c4ccccc43)cc1C2`, the Vdss in the series on Canis familiaris was 0.69 L/kg; with Rhesus monkey, 0.31 L/kg; in the series on Rattus norvegicus, 0.47 L/kg. Moreover, the values for the clearance in series [1], in [9] and in series [10] were 1.7 mL/min/kg, 0.85 mL/min/kg and 3.4 mL/min/kg, respectively. Also, the values for the half-life in [2], in [5] and in series [6] were 1.6 h, 9.6 h and 4.8 h, respectively. For the same molecule, the half-maximal inhibitory concentration (IC50) against Cytochrome P450 2C9, at Cytochrome P450 2D6 and against Cytochrome P450 3A4 was above 10000 nM in each case. Besides, the bioavailability in series [3] was determined as 29%; in series [4], 36%; in series [7], 83%. Moreover, in [8], the solubility is below 1 µg/mL.
Broadly, the Ki is the equilibrium dissociation constant of an inhibitor or competing ligand from its target. Regarding `CN1C(=O)NC(=O)[C@]12Cc1ccc(NC(=O)Cn3c(=O)n(-c4nccs4)c4ccccc43)cc1C2`, in [2], the half-life was 2 h. The concentration for half-maximal inhibition (IC50) in series [11] is 24 nM. The molecule also displayed a bioavailability in series [4] of 20%. This molecule showed a solubility in [8] below 1 µg/mL. The molecule further came in with a distribution volume (Vdss) in the series with Rattus norvegicus of 0.54 L/kg. In series [12], the Ki was 8.7 nM. This molecule also displayed a clearance in series [10] of 3.7 mL/min/kg.
In [2], `CN1C(=O)NC(=O)[C@]12Cc1ccc(NC(=O)Cn3c(=O)n(-c4cnccn4)c4ccccc43)cc1C2` had a half-life of 1.1 h. The half-maximal inhibitory concentration (IC50) in [11] came out at 64 nM. The bioavailability in series [4] came to 1%. The Vdss in the series on Rattus norvegicus was found to be 0.64 L/kg. For the same molecule, in [12], the inhibitory constant (Ki) was found to be 12 nM. The molecule further displayed a clearance in [10] of 11 mL/min/kg.
On to `CN1C(=O)NC(=O)[C@]12Cc1ccc(NC(=O)Cn3c(=O)n(-c4cncnc4)c4ccccc43)cc1C2`, for which, in [2], the half-life is 0.5 h. In series [11], the half-inhibitory concentration (IC50) was determined as 50 nM. The bioavailability in [4] was 0%. This molecule also displayed a solubility in [8] above 100 µg/mL. Further, in the series with Rattus norvegicus, the volume of distribution (Vdss) was determined as 0.95 L/kg. Besides, the inhibition constant (Ki) in series [12] was determined as 9.5 nM. In [10], this molecule returned a clearance of 46 mL/min/kg.
For the molecule `O=C(Cn1c(=O)n(-c2ccccc2)c2ccccc21)Nc1ccc2c(c1)CC1(C2)NC(=O)NC1=O` (centres undefined), the IC50 in [11] turned out to be 430 nM. Moreover, in [12], the Ki was determined as 87 nM.
With `CN1C(=O)NC(=O)[C@]12Cc1ccc(NC(=O)Cn3c(=O)n(-c4ncccn4)c4ccccc43)cc1C2`, the half-life in series [2] is 1.1 h. The IC50 in [11] stood at 110 nM. In series [4], this molecule registered a bioavailability of 2%. In the series with Rattus norvegicus, this molecule yielded a distribution volume (Vdss) of 0.5 L/kg. Also, the inhibitory constant (Ki) in series [12] came out at 25 nM. This molecule registered a clearance in series [10] of 23 mL/min/kg.
Take `CN1C(=O)NC(=O)C12Cc1ccc(NC(=O)Cn3c(=O)oc4ccccc43)cc1C2` (centres undefined): the IC50 in series [11] was determined as 1400 nM. Besides, in series [12], the inhibition constant Ki stood at 103 nM.
Take `COc1cccc(-n2c(=O)n(CC(=O)Nc3ccc4c(c3)C[C@]3(C4)C(=O)NC(=O)N3C)c3ccccc32)n1`: the half-life in series [2] is 1.2 h. Further, in [11], the IC50 stood at 54 nM. Further, the bioavailability in series [4] amounted to 13%. The molecule also showed a distribution volume (Vdss) with Rattus norvegicus of 0.84 L/kg. Besides, in [12], the Ki stood at 15 nM. This molecule also returned a clearance in [10] of 11 mL/min/kg.
With `CN1C(=O)NC(=O)[C@]12Cc1ccc(NC(=O)Cn3c(=O)n(C4CCOC4)c4ccccc43)cc1C2` (some centres undefined), the half-life in [2] was 0.9 h. The IC50 in series [11] came out at 61 nM. Moreover, the bioavailability in series [4] worked out at 5%. Further, in the series on Rattus norvegicus, the Vdss is 0.43 L/kg. In addition, the Ki in series [12] stood at 20 nM. This molecule returned a clearance in series [10] of 9 mL/min/kg.
For `O=C(Cn1c(=O)oc2ccccc21)Nc1ccc2c(c1)CC1(C2)NC(=O)NC1=O` (centres undefined), in [11], the IC50 is 2900 nM. Also, the Ki in [12] was 309 nM.
As for `Cn1c(=O)n(CC(=O)Nc2ccc3c(c2)CC2(C3)NC(=O)NC2=O)c2ccccc21` (centres undefined), in series [11], the half-maximal inhibitory concentration (IC50) came out at 530 nM. Moreover, the Ki in [12] is 78 nM.
On to `CN1C(=O)NC(=O)[C@]12Cc1ccc(NC(=O)Cn3c(=O)n(-c4nccc(C(F)(F)F)n4)c4ccccc43)cc1C2`, for which the half-life in series [2] is 2.8 h. In series [11], the IC50 stood at 50 nM. This molecule also returned a bioavailability in series [4] of 0%. Also, the Vdss in the series with Rattus norvegicus is 1.8 L/kg. Further, the Ki in series [12] was determined as 10 nM. In series [10], the clearance is 7.5 mL/min/kg.
The molecule `CN1C(=O)NC(=O)[C@]12Cc1ccc(NC(=O)Cn3c(=O)n(-c4cnsc4)c4ccccc43)cc1C2` showed a half-life in [2] of 1 h. Besides, the IC50 in series [11] came to 39 nM. For the same molecule, the bioavailability in series [4] came out at 1%. In addition, the Vdss in the series on Rattus norvegicus came to 2 L/kg. For the same molecule, in [12], the Ki is 6.8 nM. In addition, the clearance in series [10] turned out to be 60 mL/min/kg.
`O=C(Cn1c(=O)oc2ccccc21)Nc1ccc2c(c1)CCC1(C2)NC(=O)NC1=O` (centres undefined): in series [11], the half-inhibitory concentration (IC50) is 3300 nM. Further, the Ki in series [12] turned out to be 607 nM.
`CN1C(=O)NC(=O)[C@]12Cc1ccc(NC(=O)Cn3c(=O)n(-c4cc(F)cc(F)c4)c4ccccc43)cc1C2`: the half-life in series [2] is 6.5 h. Moreover, the IC50 in [11] came out at 180 nM. In addition, the bioavailability in series [4] was 24%. This molecule also displayed a distribution volume (Vdss) with Rattus norvegicus of 1.4 L/kg. Besides, the Ki in series [12] was 29 nM. Moreover, the clearance in series [10] was found to be 3.1 mL/min/kg.
On to `O=C(Cn1c(=O)[nH]c2ccccc21)Nc1ccc2c(c1)CC1(C2)NC(=O)NC1=O` (centres undefined), for which the IC50 in series [11] is 690 nM. In addition, the Ki in [12] was found to be 280 nM.
Taken in the same sequence, the figures for `CN1C(=O)NC(=O)[C@]12Cc1ccc(NC(=O)Cn3c(=O)oc4ccccc43)cc1C2` were 350 nM and 48 nM.
Take `CN1C(=O)NC(=O)[C@@]12Cc1ccc(NC(=O)Cn3c(=O)oc4ccccc43)cc1C2`: the inhibitory constant (Ki) in [12] was found to be 1050 nM.
For `CN1C(=O)NC(=O)[C@]12Cc1ccc(NC(=O)Cn3c(=O)n(C4CCS(=O)(=O)C4)c4ccccc43)cc1C2` (some centres undefined), the half-life in series [2] is 1.1 h. Further, the IC50 in [11] came to 64 nM. Further, the bioavailability in series [4] was found to be 0%. Moreover, the solubility in series [8] is above 100 µg/mL. In the series on Rattus norvegicus, this molecule showed a Vdss of 0.8 L/kg. In addition, the inhibitory constant (Ki) in series [12] came out at 17 nM. Also, in [10], the clearance was 31 mL/min/kg.
